Like-named read-outs stand apart in the source and are kept apart here.
Target: T1, Recombinant human TPH1 (MBP tagged) (Homo sapiens, UniProt P17752)
T1 construct: cloning full length human TPH1 cDNA in to a bacterial pMAL-c5E expression vector; made in house; host or cells: E. coli BL21 (DE3)
T1 sequence (P17752 1-444): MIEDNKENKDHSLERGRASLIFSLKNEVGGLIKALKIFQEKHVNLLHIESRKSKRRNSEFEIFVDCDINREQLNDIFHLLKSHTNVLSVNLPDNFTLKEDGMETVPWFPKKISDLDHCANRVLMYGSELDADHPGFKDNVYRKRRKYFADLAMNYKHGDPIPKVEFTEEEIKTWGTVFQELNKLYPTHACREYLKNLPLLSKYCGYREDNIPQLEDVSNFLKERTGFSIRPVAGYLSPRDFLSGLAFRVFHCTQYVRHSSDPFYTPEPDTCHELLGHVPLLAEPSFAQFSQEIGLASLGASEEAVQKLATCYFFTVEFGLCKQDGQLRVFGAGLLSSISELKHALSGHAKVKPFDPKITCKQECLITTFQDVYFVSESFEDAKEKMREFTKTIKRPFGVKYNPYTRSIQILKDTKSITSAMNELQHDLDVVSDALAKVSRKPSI
Assay: TPH1 in vitro inhibition assay (kinetic fluorescence)
Type: biochemical
Method in brief: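 Final mix: 15 nM MBP-TPH1, 30 μM Trp, 36 μM 6-methyltetrahydropterin, 25 μM ferrous ammonium sulfate, 50 mM MES pH 7.1, 1% DMSO, room temperature.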

[1] = read-out: TPH1 Range (TPH1 inhibition IC50)
[2] = TPH1 Range (TPH1 inhibition IC50)

IC50 [1] [nM] | Molecule | IC50 [2] [nM]
3000 to 10000 | COCCOc1cc(Cl)ccc1[C@@H](Oc1cc(N2CCC3(CC2)CN[C@H](C(=O)O)C3)nc(N)n1)C(F)(F)F [Example 36, (S)-8-(2-amino-6-((R)-1-(4-chloro-2-(2-methoxyethoxy)phenyl)-2,2,2-trifluoroethoxy)pyrimidin-4-yl)-2,8-diazaspiro[4.5]decane-3-carboxylic acid] | –
– | Nc1nc(O[C@H](c2ccc(Cl)cc2-c2cccc(N3CCCC3=O)c2)C(F)(F)F)cc(N2CCC3(CC2)CN[C@H](C(=O)O)C3)n1 [Example 34o, (S)-8-(2-amino-6-((R)-1-(5-chloro-3′-(2-oxopyrrolidin-1-yl)-[1,1′-biphenyl]-2-yl)-2,2,2-trifluoroethoxy)pyrimidin-4-yl)-2,8-diazaspiro[4.5]decane-3-carboxylic acid] | 50 to 300
– | COc1ccc(-c2ccc([C@@H](Oc3cc(N4CCC5(CC4)CN[C@H](C(=O)O)C5)nc(N)n3)C(F)(F)F)c(-n3ccc(C)n3)c2)cc1 [Example 1bm, (S)-8-(2-amino-6-((R)-2,2,2-trifluoro-1-(4′-methoxy-3-(3-methyl-1H-pyrazol-1-yl)-[1,1′-biphenyl]-4-yl)ethoxy)pyrimidin-4-yl)-2,8-diazaspiro[4.5]decane-3-carboxylic acid] | < 50
300 to 3000 | Nc1nc(O[C@H](c2ccc(-c3ccc(F)c(F)c3)cc2)C(F)(F)F)cc(N2CCC3(CC2)CN[C@H](C(=O)O)C3)n1 [Example 55cr, (S)-8-(2-amino-6-((R)-1-(3′,4′-difluoro-[1,1′-biphenyl]-4-yl)-2,2,2-trifluoroethoxy)pyrimidin-4-yl)-2,8-diazaspiro[4.5]decane-3-carboxylic acid] | –
< 50 | Cc1ccn(-c2ccc(-c3cccc(/C=C/C(=O)O)c3)cc2[C@@H](Oc2cc(N3CCC4(CC3)CN[C@H](C(=O)O)C4)nc(N)n2)C(F)(F)F)n1 [Example 19h, (S)-8-(2-amino-6-((R)-1-(3′-((E)-2-carboxyvinyl)-4-(3-methyl-1H-pyrazol-1-yl)-[1,1′-biphenyl]-3-yl)-2,2,2-trifluoroethoxy)pyrimidin-4-yl)-2,8-diazaspiro[4.5] decane-3-carboxylic acid] | –
50 to 300 | Cc1cn(C)c2ccc(-c3ccc([C@@H](Oc4cc(N5CCC6(CC5)CN[C@H](C(=O)O)C6)nc(N)n4)C(F)(F)F)cc3)cc12 [Example 55y, (S)-8-(2-amino-6-((R)-1-(4-(1,3-dimethyl-1H-indol-5-yl)phenyl)-2,2,2-trifluoroethoxy)pyrimidin-4-yl)-2,8-diazaspiro[4.5]decane-3-carboxylic acid] | –
< 50 | Nc1nc(O[C@H](c2ccc(Cl)cc2-c2cccc(C(=O)N3CCNCC3)c2)C(F)(F)F)cc(N2CCC3(CC2)CN[C@H](C(=O)O)C3)n1 [Example 34cq, (S)-8-(2-amino-6-((R)-1-(5-chloro-3′-(piperazine-1-carbonyl)-[1,1′-biphenyl]-2-yl)-2,2,2-trifluoroethoxy)pyrimidin-4-yl)-2,8-diazaspiro[4.5]decane-3-carboxylic acid] | –
50 to 300 | Nc1nc(O[C@H](c2ccc(Cl)cc2-c2ccc([N+](=O)[O-])cc2)C(F)(F)F)cc(N2CCC3(CC2)CNC(C(=O)O)C3)n1 (stereo partly drawn) [Example 34g, 8-(2-amino-6-((R)-1-(5-chloro-4′-nitro-[1,1′-biphenyl]-2-yl)-2,2,2-trifluoroethoxy)pyrimidin-4-yl)-2,8-diazaspiro[4.5]decane-3-carboxylic acid] | –
< 50 | Cc1ccn(-c2cc(-c3ccccc3)ccc2[C@@H](Oc2cc(N3CCC4(CC3)CN[C@H](C(=O)O)C4)nc(N)n2)C(F)(F)F)n1 [Example 1u, (S)-8-(2-amino-6-((R)-2,2,2-trifluoro-1-(3-(3-methyl-H-pyrazol-1-yl)-[1,1′-biphenyl]-4-yl)ethoxy)pyrimidin-4-yl)-2,8-diazaspiro[4.5]decane-3-carboxylic acid] | –
< 50 | Cc1ccn(-c2cc(-c3ccc(S(C)(=O)=O)cc3)ccc2[C@@H](Oc2cc(N3CCC4(CC3)CN[C@H](C(=O)O)C4)nc(N)n2)C(F)(F)F)n1 [Example 1cc, (S)-8-(2-amino-6-((R)-2,2,2-trifluoro-1-(3-(3-methyl-1H-pyrazol-1-yl)-4′-(methylsulfonyl)-[1,1′-biphenyl]-4-yl)ethoxy)pyrimidin-4-yl)-2,8-diazaspiro[4.5]decane-3-carboxylic acid] | –
50 to 300 | Cc1ccc(-c2cc(Cl)ccc2[C@@H](Oc2cc(N3CCC4(CC3)CN[C@H](C(=O)O)C4)nc(N)n2)C(F)(F)F)cc1Cl [Example 34aj, (S)-8-(2-amino-6-((R)-1-(3′,5-dichloro-4′-methyl-[1,1′-biphenyl]-2-yl)-2,2,2-trifluoroethoxy)pyrimidin-4-yl)-2,8-diazaspiro[4.5]decane-3-carboxylic acid] | –
< 50 | CN1CCN(C(=O)c2cccc(-c3cc(Cl)ccc3[C@@H](Oc3cc(N4CCC5(CC4)CN[C@H](C(=O)O)C5)nc(N)n3)C(F)(F)F)c2)CC1 [Example 34ch, (S)-8-(2-amino-6-((R)-1-(5-chloro-3′-(4-methylpiperazine-1-carbonyl)-[1,1′-biphenyl]-2-yl)-2,2,2-trifluoroethoxy)pyrimidin-4-yl)-2,8-diazaspiro[4.5]decane-3-carboxylic acid] | –
50 to 300 | CCCOc1ccc(-c2ccc([C@@H](Oc3cc(N4CCC5(CC4)CN[C@H](C(=O)O)C5)nc(N)n3)C(F)(F)F)cc2)cc1 [Example 55dd, (S)-8-(2-amino-6-((R)-2,2,2-trifluoro-1-(4′-propoxy-[1,1′-biphenyl]-4-yl)ethoxy)pyrimidin-4-yl)-2,8-diazaspiro[4.5]decane-3-carboxylic acid] | –
50 to 300 | Cc1ccn(-c2cc(Cl)ccc2[C@@H](Oc2ccnc(N3CCC4(CC3)CN[C@H](C(=O)O)C4)c2)C(F)(F)F)n1 [Example 45, (S)-8-(4-((R)-1-(4-chloro-2-(3-methyl-H-pyrazol-1-yl)phenyl)-2,2,2-trifluoroethoxy)pyridin-2-yl)-2,8-diazaspiro[4.5]decane-3-carboxylic acid] | –
– | Cc1ccn(-c2cc(-c3ccc(C)c(C)c3)ccc2[C@H](Oc2cc(N3CCC4(CC3)CN[C@H](C(=O)O)C4)nc(N)n2)C(F)(F)F)n1 [Example 54k, (S)-8-(2-amino-6-((S)-1-(3′,4′-dimethyl-3-(3-methyl-1H-pyrazol-1-yl)-[1,1′-biphenyl]-4-yl)-2,2,2-trifluoroethoxy)pyrimidin-4-yl)-2,8-diazaspiro[4.5]decane-3-carboxylic acid] | 50 to 300
< 50 | CCOc1cc(-c2cc(Cl)ccc2[C@@H](Oc2cc(N3CCC4(CC3)CN[C@H](C(=O)O)C4)nc(N)n2)C(F)(F)F)ccc1F [Example 34bp, (S)-8-(2-amino-6-((R)-1-(5-chloro-3′-ethoxy-4′-fluoro-[1,1′-biphenyl]-2-yl)-2,2,2-trifluoroethoxy)pyrimidin-4-yl)-2,8-diazaspiro[4.5]decane-3-carboxylic acid] | –
50 to 300 | CN(C)C(=O)c1ccc(-c2ccc([C@@H](Oc3cc(N4CCC5(CC4)CN[C@H](C(=O)O)C5)nc(N)n3)C(F)(F)F)cc2)cc1 [Example 55bw, (S)-8-(2-amino-6-((R)-1-(4′-(dimethylcarbamoyl)-[1,1′-biphenyl]-4-yl)-2,2,2-trifluoroethoxy)pyrimidin-4-yl)-2,8-diazaspiro[4.5]decane-3-carboxylic acid] | –
– | Nc1nc(O[C@H](c2ccc(Cl)cc2-c2cc(F)cc(Cl)c2)C(F)(F)F)cc(N2CCC3(CC2)CN[C@H](C(=O)O)C3)n1 [Example 34an, (S)-8-(2-amino-6-((R)-1-(3′,5-dichloro-5′-fluoro-[1,1′-biphenyl]-2-yl)-2,2,2-trifluoroethoxy)pyrimidin-4-yl)-2,8-diazaspiro[4.5]decane-3-carboxylic acid] | < 50
< 50 | CC(C)c1ccn(-c2cc(Cl)ccc2[C@@H](Oc2cc(N3CCC4(CC3)CN[C@H](C(=O)O)C4)nc(N)n2)C(F)(F)F)n1 [Example 10q, (S)-8-(2-amino-6-((R)-1-(4-chloro-2-(3-isopropyl-1H-pyrazol-1-yl)phenyl)-2,2,2-trifluoroethoxy)pyrimidin-4-yl)-2,8-diazaspiro[4.5]decane-3-carboxylic acid] | –
3000 to 10000 | Nc1nc(O[C@H](c2ccc(Br)cc2N2CCNCC2)C(F)(F)F)cc(N2CCC3(CC2)CN[C@H](C(=O)O)C3)n1 [Example 36d, (S)-8-(2-amino-6-((R)-1-(4-bromo-2-(piperazin-1-yl)phenyl)-2,2,2-trifluoroethoxy)pyrimidin-4-yl)-2,8-diazaspiro[4.5]decane-3-carboxylic acid] | –

Molecule | IC50 [1] [nM] | IC50 [2] [nM]
Cc1ccn(-c2cc(C(=O)OCC(C)C)ccc2[C@@H](Oc2cc(N3CCC4(CC3)CN[C@H](C(=O)O)C4)nc(N)n2)C(F)(F)F)n1 [Example 18e, (S)-8-(2-amino-6-((R)-2,2,2-trifluoro-1-(4-(isobutoxycarbonyl)-2-(3-methyl-1H-pyrazol-1-yl)phenyl)ethoxy)pyrimidin-4-yl)-2,8-diazaspiro[4.5]decane-3-carboxylic acid] | < 50 | –
(S)-8-(6-((R)-1-(4-(1H-indol-6-yl)-2-(3-methyl- 1H-pyrazol-1-yl)phenyl)-2,2,2-trifluoroethoxy)- 2-aminopyrimidin-4-yl)-2,8- diazaspiro[4.5]decane-3-carboxylic acid [Example 1aa] | < 50 | –

Source: patent publication US11759462B2, “Spirocyclic compounds as tryptophan hydroxylase inhibitors” (priority 2013, dated 2023)
